Tests used:
[1] = target: T1, Bifunctional 3'-5' exonuclease/ATP-dependent helicase WRN [480-1251] (UniProt Q14191); experiment: Biochemical Activity Assays
T1 construct: 480-1251

[2] = target: Bifunctional 3'-5' exonuclease/ATP-dependent helicase WRN (Homo sapiens, UniProt Q14191); experiment: ADP-Glo Kinase Assay
Procedure: ATPase activity was measured using the ADP-Glo Kinase Assay following the manufacturers recommended protocol.

Bifunctional 3'-5' exonuclease/ATP-dependent helicase WRN, sequence (Q14191 whole entry): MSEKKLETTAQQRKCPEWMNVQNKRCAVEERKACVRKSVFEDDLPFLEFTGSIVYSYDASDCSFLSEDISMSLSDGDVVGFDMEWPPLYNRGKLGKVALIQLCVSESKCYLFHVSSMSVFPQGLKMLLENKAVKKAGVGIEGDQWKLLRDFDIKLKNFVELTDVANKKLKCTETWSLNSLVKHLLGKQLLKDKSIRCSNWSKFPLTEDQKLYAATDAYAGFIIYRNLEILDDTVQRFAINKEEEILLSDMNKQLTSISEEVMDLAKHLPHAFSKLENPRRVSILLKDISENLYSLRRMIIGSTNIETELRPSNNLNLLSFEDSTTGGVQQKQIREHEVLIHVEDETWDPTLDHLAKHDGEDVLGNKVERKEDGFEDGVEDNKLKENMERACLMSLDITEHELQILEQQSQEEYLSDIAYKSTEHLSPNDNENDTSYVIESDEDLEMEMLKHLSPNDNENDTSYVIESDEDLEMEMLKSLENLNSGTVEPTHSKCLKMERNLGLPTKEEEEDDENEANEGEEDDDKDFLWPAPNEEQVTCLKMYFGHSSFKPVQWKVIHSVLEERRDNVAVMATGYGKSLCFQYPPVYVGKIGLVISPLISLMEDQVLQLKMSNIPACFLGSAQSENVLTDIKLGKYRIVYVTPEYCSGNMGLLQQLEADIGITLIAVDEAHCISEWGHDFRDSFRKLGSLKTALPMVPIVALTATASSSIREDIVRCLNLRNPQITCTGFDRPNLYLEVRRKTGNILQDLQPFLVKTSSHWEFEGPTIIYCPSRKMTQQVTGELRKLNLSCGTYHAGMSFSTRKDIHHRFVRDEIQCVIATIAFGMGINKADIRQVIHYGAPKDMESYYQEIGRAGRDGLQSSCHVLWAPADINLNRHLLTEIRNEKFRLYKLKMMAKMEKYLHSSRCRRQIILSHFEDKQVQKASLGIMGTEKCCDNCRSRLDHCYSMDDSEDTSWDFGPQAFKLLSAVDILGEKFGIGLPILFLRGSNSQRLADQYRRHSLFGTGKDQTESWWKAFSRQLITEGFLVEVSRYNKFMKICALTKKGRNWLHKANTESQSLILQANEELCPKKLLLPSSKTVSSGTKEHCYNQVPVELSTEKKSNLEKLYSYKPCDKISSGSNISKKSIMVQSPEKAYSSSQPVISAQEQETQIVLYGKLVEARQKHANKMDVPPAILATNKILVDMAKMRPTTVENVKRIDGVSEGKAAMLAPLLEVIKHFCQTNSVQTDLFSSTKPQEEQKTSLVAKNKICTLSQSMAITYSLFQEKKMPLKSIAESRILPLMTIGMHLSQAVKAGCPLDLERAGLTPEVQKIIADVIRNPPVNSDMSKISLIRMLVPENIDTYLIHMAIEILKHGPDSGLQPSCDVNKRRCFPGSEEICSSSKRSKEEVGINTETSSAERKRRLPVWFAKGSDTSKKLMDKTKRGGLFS
T1 sequence (Q14191 480-1251): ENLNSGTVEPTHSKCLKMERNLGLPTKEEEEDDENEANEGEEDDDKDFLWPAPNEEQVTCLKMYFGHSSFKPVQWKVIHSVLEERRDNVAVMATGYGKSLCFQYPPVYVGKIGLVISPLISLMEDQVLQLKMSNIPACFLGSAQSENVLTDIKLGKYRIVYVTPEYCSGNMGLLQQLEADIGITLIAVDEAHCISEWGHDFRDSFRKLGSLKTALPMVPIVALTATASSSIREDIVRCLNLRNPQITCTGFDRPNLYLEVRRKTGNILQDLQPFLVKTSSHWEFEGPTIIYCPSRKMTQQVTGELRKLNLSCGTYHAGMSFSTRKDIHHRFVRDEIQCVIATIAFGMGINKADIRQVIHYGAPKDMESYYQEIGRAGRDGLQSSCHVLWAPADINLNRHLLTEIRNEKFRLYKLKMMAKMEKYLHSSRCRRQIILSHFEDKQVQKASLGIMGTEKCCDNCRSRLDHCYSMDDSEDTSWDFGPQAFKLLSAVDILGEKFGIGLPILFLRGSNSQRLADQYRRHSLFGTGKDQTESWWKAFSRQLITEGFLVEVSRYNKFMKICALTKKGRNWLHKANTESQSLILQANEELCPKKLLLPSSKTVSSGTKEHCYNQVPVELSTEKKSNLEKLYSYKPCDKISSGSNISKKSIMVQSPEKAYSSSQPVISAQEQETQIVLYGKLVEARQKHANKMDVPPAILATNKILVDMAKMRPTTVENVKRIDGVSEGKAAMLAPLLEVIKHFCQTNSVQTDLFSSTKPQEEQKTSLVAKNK

| IC50 [1] [nM] | IC50 [2] [nM] | Compound |
| --- | --- | --- |
| 28.9 | 45.2 | CCc1c(N2CCN(C(=O)c3ncnc(C)c3O)CC2)c(=O)n2nc(N3CCCn4nccc43)nc2n1CC(=O)Nc1ccc(C(F)(F)F)cc1Cl [WO2025049746, Example 31] |
| 59.9 | 86.9 | CCc1c(N2CCN(C(=O)c3ncnc(C)c3O)CC2)c(=O)n2nc(-c3cccc4c3COCC4)nc2n1CC(=O)Nc1ccc(C(F)(F)F)cc1Cl [WO2025049746, Example 5] |
| 65 | 81 | CCc1c(N2CCN(C(=O)c3ncnc(C)c3O)CC2)c(=O)n2nc(-c3cnc4c(c3)CCOC4)nc2n1CC(=O)Nc1ccc(C(F)(F)F)cc1Cl [WO2025049746, Example 162] |
| 26 | 24 | CCc1c(N2CCN(C(=O)c3ncnc(C)c3O)CC2)c(=O)n2nc(-c3ccn4ncc(F)c4c3)nc2n1CC(=O)Nc1ccc(C(F)(F)F)cc1Cl [WO2025049746, Example 326] |
| 53 | 73 | CCc1c(N2CCN(C(=O)c3ncnc(C)c3O)CC2)c(=O)n2nc(-c3ccc4c(c3)C(C)(C)CO4)nc2n1CC(=O)Nc1ccc(C(F)(F)F)cc1Cl [WO2025049746, Example 193] |
| 38.3 | 42.9 | CCc1c(N2CCN(C(=O)c3nccc(C)c3N)CC2)c(=O)n2nc(C3=CCOCC3)nc2n1CC(=O)Nc1ccc(C(F)(F)F)cc1Cl [WO2025049746, Example 36] |
| 22 | 23 | CCc1c(N2CCN(C(=O)c3ncnc(C)c3O)CC2)c(=O)n2nc(-c3cc4cn(C)nc4cc3F)nc2n1CC(=O)Nc1ccc(C(F)(F)F)cc1Cl [WO2025049746, Example 256] |
| 84 | 106 | CCc1c(N2CCN(C(=O)c3nc4c(cc3O)CCC4)CC2)c(=O)n2nc(-c3ccc4c(c3)COC4)nc2n1CC(=O)Nc1ccc(C(F)(F)F)cc1Cl [WO2025049746, Example 417] |
| 50 | 39 | CCc1c(N2CCN(C(=O)c3ncnc(C)c3O)C[C@@H]2C)c(=O)n2nc(-c3ccc4c(c3)COC4(C)C)nc2n1CC(=O)Nc1ccc(C(F)(F)F)cc1Cl [WO2025049746, Example 453] |
| 19.8 | 27 | CCc1c(N2CCN(C(=O)c3nccc4nn[nH]c34)CC2)c(=O)n2nc(C3=CCOCC3)nc2n1CC(=O)Nc1ccc(C(F)(F)F)cc1Cl [WO2025049746, Example 48] |
| 26 | 32 | CCc1c(N2CCN(C(=O)c3ncnc(C)c3O)CC2)c(=O)n2nc(-c3ccc4c(c3)CN(C)C4=O)nc2n1CC(=O)Nc1ccc(C(F)(F)F)cc1Cl [WO2025049746, Example 185] |
| 21 | 25 | CCc1c(N2CCN(C(=O)c3ncnc(C)c3O)CC2)c(=O)n2nc(-c3cc4c(cc3F)COC4)nc2n1CC(=O)Nc1ccc(C(F)(F)F)cc1Cl [WO2025049746, Example 201] |
| 93 | 90 | CCc1c(N2CCN(C(=O)c3ncnc(C)c3O)[C@H]3CC[C@@H]32)c(=O)n2nc(-c3ccc4c(c3)COC4(C)C)nc2n1CC(=O)Nc1ccc(C(F)(F)F)cc1Cl [WO2025049746, Example 458] |
| 49 | 47 | CCc1c(N2CCN(C(=O)c3ncnc(C)c3O)CC2)c(=O)n2nc(-c3ccc4c(c3)CN(C)CC4)nc2n1CC(=O)Nc1ccc(C(F)(F)F)cc1Cl [WO2025049746, Example 308] |
| 63.2 | 73.9 | CCc1c(N2CCN(C(=O)c3ncnc(C)c3O)CC2)c(=O)n2nc(N3CCC4(COC4)C3)nc2n1CC(=O)Nc1ccc(C(F)(F)F)cc1Cl [WO2025049746, Example 29] |
| 51 | 64 | CCc1c(N2CCN(C(=O)c3ncnc(C)c3O)CC2)c(=O)n2nc(C3=CCOCC3)nc2n1CC(=O)Nc1c(Cl)cc(C(F)(F)F)c2scnc12 [WO2025049746, Example 373] |
| 276 | 414 | CCc1c(N2CCN(C(=O)c3ccccc3NS(C)(=O)=O)CC2)c(=O)n2nc(N(C)C)nc2n1CC(=O)Nc1ccc(C(F)(F)F)c2c1CC2 [WO2025049746, Example 106] |
| 31 | 38 | CCc1c(N2CCN(C(=O)c3ncnc(C)c3O)CC2)c(=O)n2nc(-c3nc4c(s3)CCC4)nc2n1CC(=O)Nc1ccc(C(F)(F)F)cc1Cl [WO2025049746, Example 210] |
| 79.4 | 156 | CCc1c(N2CCN(C(=O)c3cccn4ccnc34)CC2)c(=O)n2nc(C3=CCOCC3)nc2n1CC(=O)Nc1ccc(C(F)(F)F)cc1Cl [WO2025049746, Example 50] |
| 38 | 45 | CCc1c(N2CCN(C(=O)c3ncnc(C)c3O)CC2)c(=O)n2nc(-c3ccc4c(c3)CCO4)nc2n1CC(=O)Nc1c(Cl)cc(C(F)(F)F)c2scnc12 [WO2025049746, Example 428] |
| 31 | 32 | CCc1c(N2CCN(C(=O)c3ncnc(C)c3O)CC2)c(=O)n2nc(-c3ccc4c(c3)NC(=O)C4)nc2n1CC(=O)Nc1ccc(C(F)(F)F)cc1Cl [WO2025049746, Example 309] |
| 251 | 308 | CCc1c(N2CCN(C(=O)c3ccccc3NS(=O)(=O)C3CC3)CC2)c(=O)n2nc(-c3ccc4c(c3)OCO4)nc2n1CC(=O)Nc1ccc(C(F)(F)F)c2c1CC2 [WO2025049746, Example 111] |

| IC50 [1] [nM] | IC50 [2] [nM] | Compound |
| --- | --- | --- |
| 30 | 27 | CCc1c(N2CCN(C(=O)c3ncnc(C)c3O)CC2)c(=O)n2nc(-c3ccc4c(c3)CCO[C@H]4C)nc2n1CC(=O)Nc1ccc(C(F)(F)F)cc1Cl [WO2025049746, Example 229] |
| 45.7 | 58.3 | CCc1c(N2CCN(C(=O)c3ccccc3NS(=O)(=O)C3CC3)CC2)c(=O)n2nc(N3C[C@H]4COC[C@H]4C3)nc2n1CC(=O)Nc1ccc(C(F)(F)F)c2c1CC2 [WO2025049746, Example 112] |
| 40 | 39 | CCc1c(N2CCN(C(=O)c3ncnc(C)c3O)[C@H](C)C2)c(=O)n2nc(-c3ccc4c(c3)COC4(C)C)nc2n1CC(=O)Nc1ccc(C(F)(F)F)cc1Cl [WO2025049746, Example 457] |
| 303 | 386 | CCc1c(N2CCN(C(=O)c3cc(C)c(O)cc3O)CC2)c(=O)n2nc(-c3ccc4c(c3)COC4)nc2n1CC(=O)Nc1ccc(C(F)(F)F)cc1Cl [WO2025049746, Example 413] |
| 58 | 87 | CCc1c(N2CCN(C(=O)c3ncnc(C)c3O)CC2)c(=O)n2nc(-c3cccc4c3OCCO4)nc2n1CC(=O)Nc1c(Cl)cc(C(F)(F)F)c2c1CC2 [WO2025049746, Example 388] |
| 34.6 | 32.4 | Cc1ncnc(C(=O)N2CCN(c3c4n(c5nc(-c6ccc7c(c6)COC7(C)C)nn5c3=O)[C@@H](C(=O)Nc3ccc(C(F)(F)F)cc3Cl)C[C@H]4C)CC2)c1O [WO2025049746, Example 470] |
| 103 | 130 | CCc1c(N2CCN(C(=O)c3ncnc(C)c3O)CC2)c(=O)n2nc(-c3cccc4c3OCO4)nc2n1CC(=O)Nc1ccc(SC(F)(F)F)cc1Cl [WO2025049746, Example 400] |
| 39 | 42 | CCc1c(N2CCN(C(=O)c3ncnc(C)c3O)CC2)c(=O)n2nc(-c3ccc4c(c3)C(F)(F)CC4)nc2n1CC(=O)Nc1ccc(C(F)(F)F)cc1Cl [WO2025049746, Example 178] |
| 48 | 48 | CCc1c(N2CCN(C(=O)c3ncnc(C)c3O)CC2)c(=O)n2nc(-c3cnc4nccn4c3)nc2n1CC(=O)Nc1ccc(C(F)(F)F)cc1Cl [WO2025049746, Example 305] |
| 42 | 49 | CCc1c(N2CCN(C(=O)c3nsc(-c4ccncc4)c3O)CC2)c(=O)n2nc(-c3ccc4c(c3)COC4)nc2n1CC(=O)Nc1ccc(C(F)(F)F)cc1Cl [WO2025049746, Example 448] |
| 93 | 166 | CCc1c(N2CCCN(C(=O)c3ncnc(C)c3O)CC2)c(=O)n2nc(C3=CCOCC3)nc2n1CC(=O)Nc1ccc(C(F)(F)F)cc1Cl [WO2025049746, Example 340] |
| 35 | 29 | CCCn1cc2cc(-c3nc4n(CC(=O)Nc5ccc(C(F)(F)F)cc5Cl)c(CC)c(N5CCN(C(=O)c6ncnc(C)c6O)CC5)c(=O)n4n3)ccc2n1 [WO2025049746, Example 302] |
| 30 | 43.7 | CCc1c(N2CCN(C(=O)c3ncnc(C)c3O)CC2)c(=O)n2nc(-c3cccc4nc(C)oc34)nc2n1CC(=O)Nc1ccc(C(F)(F)F)cc1Cl [WO2025049746, Example 23] |
| 28 | 26 | CCc1c(N2CCN(C(=O)c3ncnc(C)c3O)CC2)c(=O)n2nc(-c3ccc4nc(C)ccc4c3)nc2n1CC(=O)Nc1ccc(C(F)(F)F)cc1Cl [WO2025049746, Example 323] |
| 32 | 32 | CCc1c(N2CCN(C(=O)c3ncnc(C)c3O)CC2)c(=O)n2nc(-c3ccc4nc(NC)oc4c3)nc2n1CC(=O)Nc1ccc(C(F)(F)F)cc1Cl [WO2025049746, Example 307] |
| 32 | 25 | CCc1c(N2CCN(C(=O)c3ncnc(C)c3O)CC2)c(=O)n2nc(-c3ccc4c(c3)CCC(=O)N4C)nc2n1CC(=O)Nc1ccc(C(F)(F)F)cc1Cl [WO2025049746, Example 324] |
| 67 | 77 | CCc1c(N2CCN(C(=O)c3ncnc(C)c3O)CC2)c(=O)n2nc(-c3cccc4c3OC(F)(F)O4)nc2n1CC(=O)Nc1ccc(C(F)(F)F)cc1Cl [WO2025049746, Example 232] |
| 22.8 | 26.9 | CCc1c(N2CCN(C(=O)c3ncnc(C)c3O)CC2)c(=O)n2nc(N(C)C)nc2n1CC(=O)Nc1ccc(C(F)(F)F)c2c1CC2 [WO2025049746, Example 104] |
| 25 | 26 | CCc1c(N2CCN(C(=O)c3ncnc(C)c3O)CC2)c(=O)n2nc(-c3cc4c(cc3F)OCC4)nc2n1CC(=O)Nc1ccc(C(F)(F)F)cc1Cl [WO2025049746, Example 169] |
| 129 | 160 | CCc1c(N2CCN(C(=O)c3cn(C)nc3O)CC2)c(=O)n2nc(N(C)C)nc2n1CC(=O)Nc1ccc(C(F)(F)F)c2c1CC2 [WO2025049746, Example 107] |
| 96 | 154 | CCc1c(N2CCN(C(=O)c3ccccc3NS(C)(=O)=O)CC2)c(=O)n2nc(-c3cccc4c3OCCO4)nc2n1CC(=O)Nc1ccc(C(F)(F)F)cc1Cl [WO2025049746, Example 378] |
